Measured values taken from patent US7056275B2, “Radiotherapy” (Algeta A/S, priority 2000, dated 2006).
Like-named read-outs stand apart in the source and are kept apart here.

Columns and labels:
[1] = for Tissue distribution, Blood / Tissue distribution, Brain / Tissue distribution, Femur / Tissue distribution, Heart / Tissue distribution, Kidney / Tissue distribution, L.I. / Tissue distribution, Liver / Tissue distribution, Lung / Tissue distribution, Muscle / Tissue distribution, Rib / Tissue distribution, S.I. / Tissue distribution, Skull / Tissue distribution, Spleen / Tissue distribution, Stomach: +/- SD; for Femur/Blood ratio / Femur/Kidneys ratio / Femur/Liver ratio / Femur/Spleen ratio: Balb C mice; for femur to blood and femur to tissue ratios compared to cationic radium-223 (in words): chelates at 4 hours vs radium-223 at 6 hours after injection, for some organs
Protocol: The biodistribution of thorium and actinium bound to polyphosphonate was studied in mice.
Balb/C mice with a bodyweight in the range of 11–16 g were used in the biodistribution experiments. The compounds were administered by intravenous injection of 100–200 μl of the preparation for each animal in paired label arrangement. The compounds ^228Ac-DOTMP, ^227Th-DOTMP, ^227Th-DTMP and ^227Th-acetate/MES were investigated. Approximately 5 kBq of ^[…] and 5 kBq of ^228Ac was injected. Animals were sacrificed by cervical dislocation. The tissue distribution was determined on 3 mice for each pair of compounds. The tissue distribution was determined after 4 hours for ^228Ac-DOTMP, ^227Th-DOTMP, ^227Th-DTMP and ^227Th-acetate.
In general, radioactivity in the tissue samples was measured by using a NaI (Tl) well-type detector and by liquid scintillation counting (Beckmann LS6500, Beckmann, Fullerton, Calif., USA). ^227Th was measured by using a HPGe detector (Canberra, Conn, USA) and also by liquid scintillation counting after dissolution of tissue samples and allowing decay of ^228Ac. ^228Ac was measured by the HPGe detector and the NaI(Tl) detector.
Samples of the radioactive preparations of the nuclides were used as references to account for physical decay and radiation crossover in the detection procedures.

[2] = cationic species, mice, published data; cited from earlier work
[3] = 4 hours after injection, i.v., Balb/C mice
[4] = bone seeking chelates, 4 hours after injection
[5] = cationic radium-223, 6 hours after injection

O=P([O-])(O)CN1CCN(CP(=O)([O-])O)CCN(CP(=O)(O)O)CCN(CP(=O)([O-])O)CC1.[228Ac+3] [Ac-228 DOTMP]
Tissue distribution, Blood [1, 3]: <0.1 % I.D./g | Tissue distribution, Brain [1, 3]: <0.1 % I.D./g | Tissue distribution, Femur [1, 3]: 20.67 ± 2.23 % I.D./g | Tissue distribution, Heart [1, 3]: <0.1 % I.D./g | Tissue distribution, Kidney [1, 3]: 2.7 ± 2.4 % I.D./g | Tissue distribution, L.I. [1, 3]: 0.20 ± 0.11 % I.D./g | Tissue distribution, Liver [1, 3]: 1.26 ± 0.9 % I.D./g | Tissue distribution, Lung [1, 3]: 0.20 ± 0.10 % I.D./g | Tissue distribution, Muscle [1, 3]: 0.30 ± 0.11 % I.D./g | Tissue distribution, Rib [1, 3]: 10.5 ± 3.5 % I.D./g | Tissue distribution, S.I. [1, 3]: 0.14 ± 0.07 % I.D./g | Tissue distribution, Skull [1, 3]: 10.7 ± 2.7 % I.D./g | Tissue distribution, Spleen [1, 3]: 0.51 ± 0.10 % I.D./g | Femur/Blood ratio [1, 4]: >196 | Femur/Kidneys ratio [1, 4]: 7.7 | Femur/Liver ratio [1, 4]: 16.4 | Femur/Spleen ratio [1, 4]: 41.3 | femur to blood and femur to tissue ratios compared to cationic radium-223 (in words) [1]: better

O=P([O-])(O)CN1CCN(CP(=O)([O-])O)CCN(CP(=O)([O-])O)CCN(CP(=O)([O-])O)CC1.[227Th+4] [Th-227 DOTMP]
Tissue distribution, Blood [1, 3]: <0.1 % I.D./g | Tissue distribution, Brain [1, 3]: <0.1 % I.D./g | Tissue distribution, Femur [1, 3]: 20.55 ± 2.21 % I.D./g | Tissue distribution, Heart [1, 3]: <0.1 % I.D./g | Tissue distribution, Kidney [1, 3]: 3.43 ± 1.70 % I.D./g | Tissue distribution, L.I. [1, 3]: 0.19 ± 0.10 % I.D./g | Tissue distribution, Liver [1, 3]: 0.39 ± 0.19 % I.D./g | Tissue distribution, Lung [1, 3]: 0.18 ± 0.09 % I.D./g | Tissue distribution, Muscle [1, 3]: 0.29 ± 0.17 % I.D./g | Tissue distribution, Rib [1, 3]: 11.06 ± 3.81 % I.D./g | Tissue distribution, S.I. [1, 3]: 0.14 ± 0.08 % I.D./g | Tissue distribution, Skull [1, 3]: 10.8 ± 2.94 % I.D./g | Tissue distribution, Spleen [1, 3]: 0.51 ± 0.14 % I.D./g | Tissue distribution, Stomach [1, 3]: 0.15 ± 0.05 % I.D./g | Tissue distribution, Urine ([1]; 4 hours after injection, i.v., Balb/C mice, n = 1): 21.1 % I.D./g | Femur/Blood ratio [1, 4]: >196 | Femur/Kidneys ratio [1, 4]: 6.0 | Femur/Liver ratio [1, 4]: 52.7 | Femur/Spleen ratio [1, 4]: 40.3 | femur to blood and femur to tissue ratios compared to cationic radium-223 (in words) [1]: better

O=P([O-])(O)CN(CCN(CP(=O)([O-])O)CP(=O)([O-])O)CCN(CP(=O)([O-])O)CP(=O)(O)O.[227Th+4] [Th-227 DTMP]
Tissue distribution, Blood [1, 3]: <0.1 % I.D./g | Tissue distribution, Brain [1, 3]: <0.1 % I.D./g | Tissue distribution, Femur [1, 3]: 19.58 ± 3.58 % I.D./g | Tissue distribution, Heart [1, 3]: <0.1 % I.D./g | Tissue distribution, Kidney [1, 3]: 1.38 ± 0.54 % I.D./g | Tissue distribution, L.I. [1, 3]: 0.15 ± 0.03 % I.D./g | Tissue distribution, Liver [1, 3]: 0.40 ± 0.43 % I.D./g | Tissue distribution, Lung [1, 3]: 0.12 ± 0.04 % I.D./g | Tissue distribution, Muscle [1, 3]: 0.63 ± 0.33 % I.D./g | Tissue distribution, Rib [1, 3]: 8.83 ± 5.06 % I.D./g | Tissue distribution, S.I. [1, 3]: 0.56 ± 0.63 % I.D./g | Tissue distribution, Skull [1, 3]: 12.3 ± 3.14 % I.D./g | Tissue distribution, Spleen [1, 3]: 0.13 ± 0.04 % I.D./g | Tissue distribution, Stomach [1, 3]: 0.70 ± 0.80 % I.D./g | Femur/Blood ratio [1, 4]: >196 | Femur/Kidneys ratio [1, 4]: 14.2 | Femur/Liver ratio [1, 4]: 49 | Femur/Spleen ratio [1, 4]: 151 | femur to blood and femur to tissue ratios compared to cationic radium-223 (in words) [1]: better

[223Ra] [^223Ra, reference compound]
Femur/Blood ratio [1, 5]: 129 | Femur/Kidneys ratio [1, 5]: 6.4 | Femur/Liver ratio [1, 5]: 29.1 | Femur/Spleen ratio [1, 5]: 6.4

CC(=O)[O-].CC(=O)[O-].CC(=O)[O-].CC(=O)[O-].[227Th+4] [^227Th-acetate, reference compound]
Tissue distribution, Blood [1, 3]: 1.2 ± 0.4 % I.D./g | Tissue distribution, Brain [1, 3]: <0.1 % I.D./g | Tissue distribution, Femur [1, 3]: 23.4 ± 6.9 % I.D./g | Tissue distribution, Heart [1, 3]: 2.6 ± 0.2 % I.D./g | Tissue distribution, Kidney [1, 3]: 7.7 ± 0.7 % I.D./g | Tissue distribution, L.I. [1, 3]: 1.7 ± 0.1 % I.D./g | Tissue distribution, Liver [1, 3]: 56.5 ± 9.4 % I.D./g | Tissue distribution, Lung [1, 3]: 2.6 ± 0.4 % I.D./g | Tissue distribution, Muscle [1, 3]: 1.1 % I.D./g | Tissue distribution, Rib [1, 3]: 14.6 ± 4.4 % I.D./g | Tissue distribution, S.I. [1, 3]: 2.3 ± 0.1 % I.D./g | Tissue distribution, Skull [1, 3]: 18.9 ± 7.6 % I.D./g | Tissue distribution, Spleen [1, 3]: 14.2 ± 2.8 % I.D./g | Tissue distribution, Stomach [1, 3]: 4.6 ± 1.0 % I.D./g | bone uptake (in words) ([1]; 4 hours after injection, mice): high and similar to the observed values with the bone-seeking polyphosphonate complexing agents | suitability for in vivo bone targeting given affinity for soft tissues, e.g. liver and spleen (in words) ([1]; 4 hours after injection, mice): unsuitable for in vivo bone targeting

CC(=O)[O-].CC(=O)[O-].CC(=O)[O-].[Ac+3] [cationic actinium]
selective bone uptake relative to soft tissue uptake (in words) [2]: does not show sufficient selective bone uptake relative to soft tissue uptake
